Data set [1] has as its system human achaete-scute homolog-1 (hASH1). Kind of data set: NE marker hASH1 in medullary thyroid cancer TT cells. It counts as cell-based. As to conditions: SB216763 0-50 μM.
A further data set concerns chromogranin A (CgA). The data set is described as follows: NE marker chromogranin A in medullary thyroid cancer TT cells. Format: cell-based, human. As to conditions: SB216763 0-50 μM.
The test system of data set [2] is medullary thyroid cancer TT cells. The data set is described as follows: Cellular growth of medullary thyroid cancer cells. Format: cell-based, human.
Data set [3] deals with H727 cells. The data set is described as follows: Drug toxicity assay, propidium iodide exclusion, H727 cells. It counts as cell-based, human. The procedure:
Briefly, cells were trypsinized and plated in a 6-well plate at 1 to 2×10^6 in triplicate and allowed to adhere overnight. […] As a control, DMSO was added. After incubation, the medium was removed and cells were trypsinized and added to removed medium. Cells were incubated on ice and 2.5 Ag/mL propidium iodide (Sigma) was added 5 minutes before flow cytometry (17). Data was acquired using a FACSCalibur bench top flow cytometer (Becton Dickinson, San Jose, Calif.) using CellQuest acquisition and analysis software.

The test system of data set [4] is BON cells. Kind of data set: Cell proliferation assay (MTT) in BON cells. Format: cell-based, human. As to conditions: 100 μmol/L vs DMSO, day 4 to day 10. On the procedure: (§1) Cells were trypsinized and plated in triplicate to 24-well plates and allowed to adhere overnight. […] Media were changed every 2 days with new treatment. […] Absorbance was determined using spectrophotometer at a wavelength of 540 nm.

Data set [5] relates to Raf-1/MEK/ERK system. Kind of data set: Western analysis for Raf-1 pathway activation in BON cells. It counts as cell-based, human. Conditions: increasing doses (20 and 100 μmol/L), 2 d. The procedure:
(§2) H727 and BON cells were plated at 50% to 60% confluence in 100-mm cell culture dishes and incubated overnight. Cells were treated with ZM336372 (BioMol, Plymouth Meeting, Pa.) in different concentrations for up to 6 days. Of note, treatments were done in serum-containing medium. Furthermore, the DMSO concentration never exceeded 2% in all treatment groups. ZM336372 at 500 μmol/L concentrations were used only in the toxicity experiments. Stock ZM336372 was made at higher concentration to reduce DMSO toxicity.

Data set [6] deals with BON cells. Kind of data set: Drug toxicity assay, propidium iodide exclusion, BON cells. Format: cell-based, human. As to conditions: 63 to 500 μmol/L, 2 days. The procedure:
Briefly, cells were trypsinized and plated in a 6-well plate at 1 to 2×10^6 in triplicate and allowed to adhere overnight. Then the media was replaced with fresh media containing various concentrations (31.25, 62.5, 125, 250, and 500 μmol/L) of ZM336372 and incubated for up to 3 days. As a control, DMSO was added. After incubation, the medium was removed and cells were trypsinized and added to removed medium. Cells were incubated on ice and 2.5 Ag/mL propidium iodide (Sigma) was added 5 minutes before flow cytometry (17). Data was acquired using a FACSCalibur bench top flow cytometer (Becton Dickinson, San Jose, Calif.) using CellQuest acquisition and analysis software.

Data set [7] relates to chromogranin A. Kind of data set: Western analysis of chromogranin A in BON cells. It counts as cell-based, human. As to conditions: 20 and 100 μmol/L, 2 d. The procedure: as §2
(§3) Changes in chromogranin A levels are known to be concordant with alterations in other neuroendocrine hormones such as histamine and serotonin (Sippel & Chen, Surgery 2002;132:1035-9). Additionally, hASH1 is expressed in most neuroendocrine tumors and correlates with neuroendocrine hormone levels as previously described. Therefore, to determine if ZM336372 can reduce chromogranin A and hASH1, pulmonary H727 and gastrointestinal BON carcinoid cells were treated with ZM336372. […] Furthermore, to determine when chromogranin A depletion occurs, H727 cells were treated with ZM336372 at different time intervals.

Data set [8] relates to chromogranin A. Kind of data set: Western analysis of chromogranin A in H727 cells. Format: cell-based, human. The procedure: as §2, §3
Data set [9] relates to Raf-1/MEK/ERK system. The data set is described as follows: Western analysis for Raf-1 pathway activation in H727 cells. Format: cell-based, human. The procedure:
as §2

Data set [10] concerns hASH1. Kind of data set: Western analysis of hASH1 in BON cells. Format: cell-based, human. Conditions: 20 and 100 μmol/L, 2 d. On the procedure:
as §2, §3

Another data set has as its target T1, GSK3B (Homo sapiens, UniProt P49841).
T1 construct: treatment of NE tumor cells with ZM336372 (0-50 μM); endogenous in cells; host or cells: BON and TT cells
Kind of data set: Phosphorylated GSK3B in NE tumor cells (BON and TT) treated with ZM336372 (FIG. 7). Format: cell-based. As to conditions: ZM336372 0-50 μM.

For data set [11], the system named is H727 cells. The data set is described as follows: Cell proliferation assay (MTT) in H727 cells. It counts as cell-based, human. Conditions: 100 μmol/L vs DMSO, up to 16 days, serum-containing medium. The procedure:
as §1

The next data set deals with p21. The data set is described as follows: Western analysis of cell cycle inhibitor p21 in H727 cells. It counts as cell-based, human. As to conditions: 20 and 100 μmol/L, 2 days.
The subject of data set [12] is H727 cells. The data set is described as follows: Cytotoxicity assay (Cell Titer Glo), H727 cells. Conditions: ZM336372 tested 0 to 200 μmol/L. Format: cell-based, human. On the procedure: (§4) Cells (H727 and BON) were harvested by trypsinization and plated at a cell density of 3,000 cells per well of each microtiter plate. Cells were grown for 4 hours at 37° C. to allow cell attachment to occur before compound addition. Doxorubicin (control) and ZM336372 were dissolved in DMSO. […] Treatments were done in duplicate. Cells were incubated with the test compounds for 72 hours before reading the assay. Then processing and calculation were done according to manufacturer's directions for Cell Titer Glo Assay (Promega, Madison, Wis.).
Background: ATP-based viability assays read luminescence as a measure of living cells.

The subject of data set [13] is hASH1. The data set is described as follows: Western analysis of hASH1 in H727 cells. It counts as cell-based, human. The procedure: as §2, §3
Data set [14] concerns BON cells. The data set is described as follows: Cytotoxicity assay (Cell Titer Glo), BON cells. It counts as cell-based, human. Conditions: 72 hours, ZM336372 tested 0 to 200 μmol/L. On the procedure:
as §4

The test system of the next data set is ERK1/2. Kind of data set: Phosphorylated ERK1/2 in NE tumor cells (BON and TT) treated with ZM336372 (FIG. 7). Format: cell-based, human. As to conditions: ZM336372 0-50 μM.
The test system of the next data set is p18. The data set is described as follows: Western analysis of cell cycle inhibitor p18 in H727 cells. As to conditions: 20 and 100 μmol/L, 2 days.

Entries after “also recorded” stand apart in the source; their conditions may differ. Read-outs that look alike come from different tables or passages of the source.

The term IC50 denotes the concentration that inhibits the measured activity by half.

T1 sequence (P49841 whole entry): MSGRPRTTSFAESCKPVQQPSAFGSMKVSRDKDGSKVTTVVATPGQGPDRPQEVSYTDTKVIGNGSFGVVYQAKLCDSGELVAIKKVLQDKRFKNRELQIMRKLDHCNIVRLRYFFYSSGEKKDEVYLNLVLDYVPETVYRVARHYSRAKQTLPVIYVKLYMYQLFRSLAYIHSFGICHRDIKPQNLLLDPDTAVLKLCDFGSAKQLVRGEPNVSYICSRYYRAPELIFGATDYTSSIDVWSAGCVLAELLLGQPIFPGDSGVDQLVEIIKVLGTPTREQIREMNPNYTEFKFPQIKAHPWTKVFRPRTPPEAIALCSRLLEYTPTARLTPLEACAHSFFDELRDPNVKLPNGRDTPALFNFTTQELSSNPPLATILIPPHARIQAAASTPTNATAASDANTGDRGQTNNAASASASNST
Protocol for p18: (§5) Cellular extracts were prepared and quantified by bicinchoninic acid protein assay kit (Pierce, Rockford, Ill.) as previously described (Sippel & Chen, Surgery 2002;132:1035-9). Denatured proteins (30-50 μg) from each sample underwent electrophoresis on a SDS polyacrylamide gel and transferred to a nitrocellulose membranes (Schleicher and Schuell, Keene, N.H.). Membranes were blocked for 1 hour in milk solution (1×PBS, 5% nonfat dry milk, 0.05% Tween 20) and incubated at 4° C. overnight with primary antibodies. The following primary antibody dilutions were used: phospho-ERK1/2 (1:1,000), phospho-MEK (1:1,000), phospho-Raf-1 (Ser338; 1:1,000), p21 and p18, (1:1,000) (Cell Signaling Technology, Beverly, Mass.), Chromogranin A (1:2,000; Zymed Laboratories, San Francisco, Calif.), MASH-1 (1:1000, BD Pharmingen, San Diego, Calif.), and G3PDH (1:10,000; Trevigen, Gaithersburg, Md.). After primary antibody incubation, membranes were washed 3×5 minutes in PBS-T wash buffer (1×PBS and 0.05% Tween 20). Then the membranes were incubated with either 1:2,000 dilution of goat anti-rabbit or goat anti-mouse secondary antibody (Cell Signaling Technology) depending on the source of the primary antibody for 1 hour at room temperature. […]
Protocol for p21: as §5

`Cn1cc(C2=C(c3ccc(Cl)cc3Cl)C(=O)NC2=O)c2ccccc21` [SB216763]: in [1], the hASH1 result is recorded as “suppression; also recorded: reduction”. For the same molecule, the “chromogranin A production” value in the data set on chromogranin A (CgA) was “suppression; also recorded: reduction”. Further, the TT cell growth entry in data set [2] (SB216763 0-50 μM) is recorded as “suppression”.

In turn, `Cc1ccc(NC(=O)c2cccc(N(C)C)c2)cc1NC(=O)c1ccc(O)cc1` [ZM336372] came in with a cytolysis in the data set on H727 cells [3] (20-100 μmol/L) of less than 20%. Also, in the data set with H727 cells [3] (H727, 20 to 100 μmol/L vs DMSO, 2 d), the viability entry was “significant viability was maintained”. Moreover, the values for the cell proliferation result in the data set with BON cells [4] and in the data set on H727 cells [11] were “growth suppression; also recorded: inhibited” and “growth suppressed; also recorded: inhibited”, respectively. Moreover, the “ERK1/2 and MEK1/2 phosphorylation” value in the data set with Raf-1/MEK/ERK system [5] is on record as “strong activation; also recorded: dose-dependent increases”. The cells remaining viable in the data set with BON cells [6] is recorded as approximately 70%. The “chromogranin A level” value with chromogranin A [7] is listed as “reduction; also recorded: dose-dependent decrease”; in the data set with chromogranin A [8] (20 and 100 μmol/L, 2 d) it was “reduction; also recorded: dose-dependent decrease”. In addition, the “time of greatest comparative loss of chromogranin A” value in the data set with chromogranin A [8] (100 μmol/L) was determined as 48 h. The “lasting effect on chromogranin A (days 2, 4 and 6)” value in the data set on chromogranin A [8] (100 μmol/L vs DMSO) is reported as “maintained to 6 days; also recorded: persistent reduction”. Besides, the “earliest detection of reduction of chromogranin A” value in the data set with chromogranin A [8] (100 μmol/L, 10 min, 1, 12, 24, 48 h) worked out at 1 h. The “MEK1/2 phosphorylation at days 4 and 6” value with Raf-1/MEK/ERK system [9] (100 μmol/L) is reported as “sustained; also recorded: greater than controls out to 6 d”. The “Raf-1 phosphorylation at Ser338” value with Raf-1/MEK/ERK system [9] (20 and 100 μmol/L, 2 days) was “phosphorylated; also recorded: dose-dependent increases”. The “MEK1/2 and ERK1/2 phosphorylation” value in the data set on Raf-1/MEK/ERK system [9] (20 and 100 μmol/L, 2 days, vs DMSO) is listed as “activation; also recorded: dose-dependent increases”. Besides, the hASH1 level entry with hASH1 [10] is recorded as “reduction; also recorded: dose-dependent decrease”; in the data set with hASH1 [13] (20 and 100 μmol/L, 2 d), “reduction; also recorded: dose-dependent decrease”. At GSK3B, the “levels of phosphorylated GSK3B” value is “increased levels”. Besides, the p21 expression entry in the data set with p21 is on record as “induced; also recorded: significant induction”. In addition, the IC50 entry in the data set on H727 cells [12] (72 hours) and in the data set on BON cells [14] was “did not produce enough cellular cytotoxicity to estimate an IC50” in each case. For the same molecule, in the data set on hASH1 [13] (100 μmol/L), the “first recognized reduction in hASH1” value is recorded as 1 h. In the data set on ERK1/2, the “levels of phosphorylated ERK1/2” value is “increased levels”. Also, the p18 expression entry in the data set with p18 is listed as “induced; also recorded: significant induction”. Further, the “growth of other neuroendocrine tumor cell lines” value in [2] (ZM336372, medullary thyroid cancer cells, data not shown) is “inhibited growth”.

For the molecule `COc1cccc2c1C(=O)c1c(O)c3c(c(O)c1C2=O)C[C@@](O)(C(=O)CO)C[C@@H]3O[C@H]1C[C@H](N)[C@H](O)[C@H](C)O1` [doxorubicin], the IC50 with H727 cells [12] (Homo sapiens, NCI-H727, 72 hours, read-out: IC50) was 1.1 µM; with BON cells [14] (Homo sapiens, read-out: IC50), 1.4 µM.

These data come from patent US20060121040A1, “Compositions and methods for treating neuroendocrine tumors” (Wisconsin Alumni Research Foundation, priority 2004, published 2006).
